From patent publication US20240109918A1, “HETEROCYCLIC COMPOUNDS AND USES THEREOF” (Kumquat Biosciences Inc., priority 2022, published 2024)

Experiments:
KRASwt = molecular target: T1, KRASwt (Homo sapiens, UniProt P01116); experiment: Bio-Biochem-PPI-HTRF Ras-SOS1 interaction assay (KRAS wt); format: biochemical; conditions: 5 nM
T1 construct: made in house; host or cells: E. coli BL21 (DE3)
Method in brief: (§1)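 HTRF measurement of GST-K-Ras (wt or G12D) binding to His-hSOS1, via anti-GST-Eu(K) donor and anti-6His-XL665 acceptor, in HEPES pH 7.4 buffer with NaCl, DTT, BSA and Igepal. Read after ≥10 min; compounds in duplicate from 10 μM down to 0.01 μM. IC50 from 665/620 nm ratio.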

KRASG12D = molecular target: T2, KRASG12D (Homo sapiens, UniProt P01116, G12D); experiment: Bio-Biochem-PPI-HTRF Ras-SOS1 interaction assay (KRAS G12D); format: biochemical; conditions: 5 nM
T2 construct: made in house; host or cells: E. coli BL21 (DE3)
T2 sequence (P01116 1-188 isoform P01116-2 G12D): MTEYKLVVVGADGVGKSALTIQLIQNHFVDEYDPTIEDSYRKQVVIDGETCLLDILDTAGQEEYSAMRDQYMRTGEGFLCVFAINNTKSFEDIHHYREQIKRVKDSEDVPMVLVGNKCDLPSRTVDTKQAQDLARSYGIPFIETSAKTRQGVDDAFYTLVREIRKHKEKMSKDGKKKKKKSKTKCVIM
Method in brief: as §1

T1 sequence (P01116 1-188 isoform P01116-2): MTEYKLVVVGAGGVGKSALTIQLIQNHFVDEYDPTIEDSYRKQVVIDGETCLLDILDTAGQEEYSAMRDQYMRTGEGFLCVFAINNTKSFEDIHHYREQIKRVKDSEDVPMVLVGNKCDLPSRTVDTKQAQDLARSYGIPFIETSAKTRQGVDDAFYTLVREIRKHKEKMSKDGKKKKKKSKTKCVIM

SMILES | IC50 (KRASwt) [µM] | IC50 (KRASG12D) [µM]
N#Cc1c(N)sc2c(F)ccc(-c3c(Cl)cc4c(N5CCCC6(CN(C(=O)N7CC[C@H]7C#N)C6)C5)nc(OC[C@@]56CCCN5C[C@H](F)C6)nc4c3F)c12 [compound 211, (2S)-1-(6-(7-(2-amino-3-cyano-7-fluorobenzo[b]thiophen-4-yl)-6-chloro-8-fluoro-2-(((2R,7aS)-2-fluorotetrahydro-1H-pyrrolizin-7a(5H)-yl)methoxy)quinazolin-4-yl)-2,6-diazaspiro[3.5]nonane-2-carbonyl)azetidine-2-carbonitrile] | < 5 | < 5
COCC(=O)N1CC2(CCCN(c3nc(O[C@@H](C)[C@@H]4CCCN4C)nc4c(F)c(-c5ccc(F)c6sc(N)c(C#N)c56)c(Cl)cc34)C2)C1 [compound 138, 2-amino-4-(6-chloro-8-fluoro-4-(2-(2-methoxyacetyl)-2,6-diazaspiro[3.5]nonan-6-yl)-2-((S)-1-((S)-1-methylpyrrolidin-2-yl)ethoxy)quinazolin-7-yl)-7-fluorobenzo[b]thiophene-3-carbonitrile] | < 5 | < 5
Nc1nc2c(-c3c(Cl)cc4c(N5CCC6(CC5)CN(C(=O)C(F)(F)F)C6)nc(OC[C@@]56CCCN5C[C@H](F)C6)nc4c3F)ccc(F)c2s1 [compound 168, 1-(7-(7-(2-amino-7-fluorobenzo[d]thiazol-4-yl)-6-chloro-8-fluoro-2-(((2R,7aS)-2-fluorotetrahydro-1H-pyrrolizin-7a(5H)-yl)methoxy)quinazolin-4-yl)-2,7-diazaspiro[3.5]nonan-2-yl)-2,2,2-trifluoroethan-1-one] | < 5 | ≥ 5
Nc1nc2c(-c3c(Cl)cc4c(N5CCOC6(CCNCC6)C5)nc(OCC56CCCN5C[C@H](F)C6)nc4c3F)ccc(F)c2s1 (stereo partly drawn) [compound 129, 4-(6-chloro-8-fluoro-2-(((2R)-2-fluorotetrahydro-1H-pyrrolizin-7a(5H)-yl)methoxy)-4-(1-oxa-4,9-diazaspiro[5.5]undecan-4-yl)quinazolin-7-yl)-7-fluorobenzo[d]thiazol-2-amine] | < 5 | < 5
C[C@H](Oc1nc(N2CCCC3(CN(C(=O)[C@@H]4C[C@H]4F)C3)C2)c2cc(Cl)c(-c3ccc(F)c4sc(N)c(C#N)c34)c(F)c2n1)[C@@H]1CCCN1C [compound 126, 2-amino-4-(6-chloro-8-fluoro-4-(2-((1S,2R)-2-fluorocyclopropane-1-carbonyl)-2,6-diazaspiro[3.5]nonan-6-yl)-2-((S)-1-((S)-1-methylpyrrolidin-2-yl)ethoxy)quinazolin-7-yl)-7-fluorobenzo[b] thiophene-3-carbonitrile] | < 5 | < 5
C[C@H](Oc1nc(N2CCCC3(CN(C(=O)C4CC4(F)F)C3)C2)c2cc(Cl)c(-c3ccc(F)c4sc(N)c(C#N)c34)c(F)c2n1)[C@@H]1CCCN1C (stereo partly drawn) [compound 148, 2-amino-4-(6-chloro-4-(2-(2,2-difluorocyclopropane-1-carbonyl)-2,6-diazaspiro[3.5]nonan-6-yl)-8-fluoro-2-((S)-1-((S)-1-methylpyrrolidin-2-yl)ethoxy)quinazolin-7-yl)-7-fluorobenzo[b]thiophene-3-carbonitrile] | < 5 | < 5

Other lines, results leading:

IC50 (KRASwt) [µM] | IC50 (KRASG12D) [µM] | SMILES
< 5 | < 5 | N#Cc1c(N)sc2c(F)ccc(-c3c(Cl)cc4c(N5CCCCC6(CN(C(=O)[C@@H]7CCCN7)C6)C5)nc(OC[C@@]56CCCN5C[C@H](F)C6)nc4c3F)c12 [compound 296, 4-(4-(2-(L-prolyl)-2,6-diazaspiro[3.6]decan-6-yl)-6-chloro-8-fluoro-2-(((2R,7aS)-2-fluorotetrahydro-1H-pyrrolizin-7a(5H)-yl)methoxy)quinazolin-7-yl)-2-amino-7-fluorobenzo[b]thiophene-3-carbonitrile]
< 5 | < 5 | N#Cc1c(N)sc2c(F)ccc(-c3c(Cl)cc4c(N5CCCCC6(CN(C(=O)N7CC[C@H]7C#N)C6)C5)nc(OC[C@@]56CCCN5C[C@H](F)C6)nc4c3F)c12 [compound 224, (2S)-1-(6-(7-(2-amino-3-cyano-7-fluorobenzo[b]thiophen-4-yl)-6-chloro-8-fluoro-2-(((2R,7aS)-2-fluorotetrahydro-1H-pyrrolizin-7a(5H)-yl)methoxy)quinazolin-4-yl)-2,6-diazaspiro[3.6]decane-2-carbonyl)azetidine-2-carbonitrile]
≥ 5 | ≥ 5 | Nc1nc2c(-c3c(Cl)cc4c(N5CCNCC56CNC6)nc(OCC56CCCN5C[C@H](F)C6)nc4c3F)ccc(F)c2s1 (stereo partly drawn) [compound 226, 4-(6-chloro-8-fluoro-2-(((2R)-2-fluorotetrahydro-1H-pyrrolizin-7a(5H)-yl)methoxy)-4-(2,5,8-triazaspiro[3.5]nonan-5-yl)quinazolin-7-yl)-7-fluorobenzo[d]thiazol-2-amine]
< 5 | < 5 | Cn1cc(C(=O)N2CC3(CCCCN(c4nc(OC[C@@]56CCCN5C[C@H](F)C6)nc5c(F)c(-c6ccc(F)c7sc(N)c(C#N)c67)c(Cl)cc45)C3)C2)c(C(F)F)n1 [compound 220, 2-amino-4-(6-chloro-4-(2-(3-(difluoromethyl)-1-methyl-1H-pyrazole-4-carbonyl)-2,6-diazaspiro[3.6]decan-6-yl)-8-fluoro-2-(((2R,7aS)-2-fluorotetrahydro-1H-pyrrolizin-7a(5H)-yl)methoxy)quinazolin-7-yl)-7-fluorobenzo[b]thiophene-3-carbonitrile]
< 5 | < 5 | Nc1nc2c(-c3c(Cl)cc4c(N5CCC6(CC5)CN(C(=O)c5nc[nH]n5)C6)nc(OC[C@@]56CCCN5C[C@H](F)C6)nc4c3F)ccc(F)c2s1 [compound 248, (7-(7-(2-amino-7-fluorobenzo[d]thiazol-4-yl)-6-chloro-8-fluoro-2-(((2R,7aS)-2-fluorotetrahydro-1H-pyrrolizin-7a(5H)-yl)methoxy)quinazolin-4-yl)-2,7-diazaspiro[3.5]nonan-2-yl) (1H-1,2,4-triazol-3-yl)methanone]
< 5 | < 5 | CN(C(=O)N1CC2(CCCCN(c3nc(OC[C@@]45CCCN4C[C@H](F)C5)nc4c(F)c(-c5ccc(F)c6sc(N)c(C#N)c56)c(Cl)cc34)C2)C1)C1CC1 [compound 234, 6-(7-(2-amino-3-cyano-7-fluorobenzo[b]thiophen-4-yl)-6-chloro-8-fluoro-2-(((2R,7aS)-2-fluorotetrahydro-1H-pyrrolizin-7a(5H)-yl)methoxy)quinazolin-4-yl)-N-cyclopropyl-N-methyl-2,6-diazaspiro[3.6]decane-2-carboxamide]
< 5 | < 5 | CC1(NC(=O)N2CC3(CCCCN(c4nc(OC[C@@]56CCCN5C[C@H](F)C6)nc5c(F)c(-c6ccc(F)c7sc(N)c(C#N)c67)c(Cl)cc45)C3)C2)COC1 [compound 328, 6-(7-(2-amino-3-cyano-7-fluorobenzo[b]thiophen-4-yl)-6-chloro-8-fluoro-2-(((2R,7aS)-2-fluorotetrahydro-1H-pyrrolizin-7a(5H)-yl)methoxy)quinazolin-4-yl)-N-(3-methyloxetan-3-yl)-2,6-diazaspiro[3.6]decane-2-carboxamide]
